# Laboratory results taken from US20090169538A1, “Methods of Treating or Preventing Tissue Damage Caused by Increased Blood Flow” (REGENERX BIOPHARMACEUTICALS, INC., priority 2006, published 2009).
# Assays:
# embryonic heart explants = format: cell-based
# Text: To test the effects of secreted thymosin β4 on cardiac cell migration, an embryonic heart explant system designed to assay cell migration and transformation events on a three-dimensional collagen gel was utilized. In this assay, explants of adjacent embryonic myocardium and endocardium from valve-forming regions were placed on a collagen gel with the endocardium adjacent to the collagen.
# Outflow tract was dissected from E11.5 wild type mouse embryos and placed on collagen matrices as previously described. After 10 hours of attachment explants were incubated in 30 ng/300 μl thymosin β4 in PBS, PBS alone or thymosin β4 and 100 nM wortmanin. Cultures were carried out for 3-9 days at 37° C. 5% CO2 and fixed in 4% paraformaldehyde in PBS for 10 min at RT. Cells were counted for quantification of migration and distance using at least three separate explants under each condition for endothelial migration and eight separate explants for myocardial migration.
# Paraformaldehyde-fixed explants were permeabilized for 10 min at RT with Permeabilize solution (10 mM PIPES pH6.8; 50 mMNaCl; 0.5% Triton X-100; 300 mM Sucrose; 3 mM MgCl2) and rinsed with PBS 2×5 min at RT. After a series of blocking and rinsing steps, detection antibodies were used and explants rinsed and incubated with Equilibration buffer (Anti-Fade kit) 10 min at room temperature. Explants were scooped to a glass microscope slide, covered, and examined by fluorescein microscopy. TUNEL assay was performed using ApopTag Plus Fluorescein In Situ Apoptosis detection kit (Intergen Company # S7111) as recommended.
# myocardial infarction = myocardial infarction by coronary artery ligation, echocardiography and histology; format: in vivo, mice
# Description: Because of thymosin β4's effects on survival and migration of cardiomyocytes cultured in vitro and phosphorylation of Akt, it was tested whether thymosin β4 might aid in cardiac repair in vivo after myocardial damage. Myocardial infarctions in fifty-eight adult mice were created by coronary artery ligation and treated half with systemic, intracardiac, or systemic plus intracardiac thymosin β4 immediately after ligation and the other half with PBS. Intracardiac injections were done with collagen (control) or collagen mixed with thymosin β4. All forty-five mice that survived two weeks later were interrogated for cardiac function by random-blind ultrasonagraphy at 2 and 4 weeks after infarction by multiple measurements of cardiac contraction. […] Control cardiac injections were performed with the same collagen vehicle making it unlikely that an endogenous reaction to the injection contributed to the cardiac recovery.
# To determine the manner in which thymosin β4 improved cardiac function, multiple serial histologic sections of hearts treated with or without thymosin β4 were examined. […] TUNEL positive cells that were also myocytes were rare in the thymosin β4 group but abundant in the control hearts. […] Thus, the decreased scar volume and preserved function of thymosin β4 treated mice were likely due to early preservation of myocardium after infarction through thymosin β4's effects on survival of cardiomyocytes.
# Embryonic or adult cardiac tissue was embedded in paraffin and sections used for immunohistochemistry. […] Adult hearts were sectioned at ten equivalent levels from the base of the heart to the apex. Serial sections were used for trichrome sections and reaction with sarcomeric a-actinin, c-kit, Sca-1, Abcg2, and BrdU antibodies and for TUNEL assay (Intergen Company # S7111).
# Myocardial infarction was produced in fifty-eight male C57BL/6J mice at 16 weeks of age (25-30 g) by ligation of the left anterior descending coronary artery as previously described. Twenty-nine of the ligated mice received thymosin β4 treatment immediately following ligation and the remaining twenty-nine received PBS injections. Treatment was given intracardiac with thymosin β4 (200 ng in 10 ul collagen) or with 10 ul of collagen; intraperitoneally with thymosin β4 (150 μg in 300 μl PBS) or with […]; or by both intracardiac and intraperitoneal injections. Intraperitoneal injections were given every three days until mice were sacrificed. Doses were based on previous studies of thymosin β4 biodistribution. Hearts were removed, weighed and fixed for histologic sectioning. Additional mice were operated on in a similar fashion for studies 0.5, 1, 3, 6 and 11 days after ligation.
# Echocardiograms to assess systolic function were performed using M-mode and 2-dimensional measurements as described previously. The measurements represented the average of six selected cardiac cycles from at least two separate scans performed in random-blind fashion with papillary muscles used as a point of reference for consistency in level of scan. End diastole was defined as the maximal left ventricle (LV) diastolic dimension and end systole was defined as the peak of posterior wall motion. Single outliers in each group were omitted for statistical analysis. Fractional shortening (FS), a surrogate of systolic function, was calculated from LV dimensions as follows: FS=EDD−ESD/EDD×100%. Ejection fraction (EF) was calculated from two-dimensional images. EDD, end diastolic dimension; ESD, end systolic dimension.
# Scar volume was calculated using six sections through the heart of each mouse using Openlab 3.03 software (Improvision) similar to previously described. Percent area of collagen deposition was measured on each section in blinded fashion and averaged for each mouse.
# [1] = four weeks after infarction, versus control
substance,measurement,setting,value
thymosin β4,cell death based on TUNEL assay compared to control cells,embryonic heart explants,No significant difference
same,number of migrating endothelial cells,"embryonic heart explants; E11.5 explants, compared to PBS, p<0.01",increased number of migrating endothelial cells
same,proliferative rate based on phosho-histone H3 immunostaining compared to control cells,embryonic heart explants; migrated cells of explants,No significant difference
same,migration of myocardial cells away from the explant,embryonic heart explants; thymosin β4 added to primary explants on collagen gel,"a large number of spontaneously beating, cardiac muscle actin-positive cells had migrated away from the explant"
same,cardiac dilation after infarction (EDD and ESD),myocardial infarction; EDD and ESD significantly higher in control group,decreased cardiac dilation
same,"degree of improvement, systemic intraperitoneal versus local intracardiac administration",myocardial infarction; echocardiography,not statistically different
same,mean fractional shortening of left ventricle,"myocardial infarction; four weeks after infarction, n=23, 95% confidence interval, p<0.0001, control 23.2",37.2+/−1.8%
same,mean ejection fraction,"myocardial infarction; four weeks after infarction, n=23, 95% confidence interval, p<0.0001, control 28.2",57.7+/−3.2%
same,improvement in cardiac fractional shortening,myocardial infarction; [1],greater than 60%
same,improvement in ejection fraction,myocardial infarction; [1],> 100%
same,scar volume,"myocardial infarction; six levels of sections through left ventricle, subset of mice, p<0.05",significant reduction
same,left ventricle fractional shortening,"myocardial infarction; three days after infarction, intracardiac treatment, n=4, 95% confidence interval, p<0.02, controls 28.8",39.2+/−2.34%
same,ejection fraction,"myocardial infarction; three days after infarction, intracardiac treatment, p<0.02, controls 44.7",64.2+/−6.69%
same,size of scar (trichrome stain),"myocardial infarction; three levels of section, all treated mice",reduced
same,cell death by TUNEL assay in cardiomyocytes,myocardial infarction; twenty-four hours after ligation,striking decrease
